According to patent publication US20050106220A1, “Agent for improving mobility and general health of senior companion animals” (priority 2003, published 2005):

Legend:
Assay type in all cases: in vivo
sympathetic nerve = test: RR interval by Holter ECG after oral GABA in Beagle dogs; settings: 10 month old Beagle dogs
Description: Three 10 month old Beagle dogs were confined in darkness from 19:00 (7pm) until 7:00 (7am). An electrocardiogramr was obtained under free movement using a Holter ECG recorder (wireless installation-type ECG recorder). An electrocardiogram was obtained every 30 minutes for 1 minute. A capsule containing 300 mg/kg body weight of GABA was orally administered to each dog just before the dark period. As a control, an empty capsule was administered.
An RR interval (msec, inverse number of a heart rate) relative to the time that lapsed after administration was measured.

senior dogs [1] = test: Dog food mixed with GABA fed to senior dogs, observation of age-related conditions; settings: 2 weeks
Description: Dog food was mixed with GABA (30 mg/kg body weight). Mongrel dog A (17 years old) was fed this mixture once a day in the evening for 2 weeks. […] Dog food was mixed with GABA (30 mg/kg body weight). Mongrel dog B (14 years old) was fed this mixture once a day for 2 weeks. […] Dog food was mixed with GABA (30 mg/kg body weight). Toy poodle A (15 years old) was fed this mixture once a day for 2 weeks. […] Dog food was mixed with GABA (30 mg/kg body weight). Toy poodle B (12 years old) was fed this mixture once a day for 2 weeks. […] Dog food was mixed with GABA (30 mg/kg body weight). Pomeranian A (14 years old) was fed this mixture once a day for 2 weeks. […] Dog food was mixed with GABA (30 mg/kg body weight). Shiba Ken (Japanese breed) A (16 years old) was fed with this mixture once a day for 2 weeks.

senior dogs [2] = test: Intravenous SKF 97541 in a senior dog, turning motion; settings: Shiba Ken B (15 years old), single intravenous dose of from 0.01 to 0.1 mg/kg body weight
Description: SKF 97541 was intravenously administered once to Shiba Ken B (15 years old) at a dose of from 0.01 to 0.1 mg/kg body weight.

[3] = Mongrel dog B (14 years old), 30 mg/kg body weight in dog food once a day
[4] = Pomeranian A (14 years old), 30 mg/kg body weight in dog food once a day
[5] = Shiba Ken A (16 years old), 30 mg/kg body weight in dog food once a day
[6] = Toy poodle A (15 years old), 30 mg/kg body weight in dog food once a day
[7] = Toy poodle B (12 years old), 30 mg/kg body weight in dog food once a day

## NCCCC(=O)O [GABA, γ-aminobutyric acid]
Sympathetic nerve; GABA 300 mg/kg body weight oral capsule
  stimulus of the sympathetic nerve: stimulus of the sympathetic nerve was observed
Sympathetic nerve; GABA 300 mg/kg body weight oral capsule before dark period, approximately 2 to 9 hours after administration, vs empty capsule
  average RR interval (inverse number of a heart rate): shortened
Senior dogs [1]; Mongrel dog A (17 years old), 30 mg/kg body weight in dog food once a day in the evening
  forced and labored breathing: disappeared
Senior dogs [1]; [3]
  drinking behaviour: drank water on its own
  leg trembling: disappeared
  mobility and general health: improvement in mobility and general health was observed
Senior dogs [1]; [4]
  continuous sleeping all day long: decreased
  desire to go for a walk: clearly showed signs that he wanted to go for a walk
  general health and activity level: improvement in general health and activity level was observed
Senior dogs [1]; [5]
  ability to move around: able to move around easier and clearly with less pain
  mobility: improvement in mobility was observed
Senior dogs [1]; [6]
  behaviour towards owner: sought out his owner and wanted to stay by him
  difficult breathing: decreased
  sense of hearing and sense of smell, mobility and general health: improvement
Senior dogs [1]; [7]
  mobility: improvement in mobility was observed
  walking (tottering steps before administration): walked firmly with steady steps

## CP(=O)(O)CCCN [SKF 97541, 3-aminopropyl(methyl)phosphinic acid]
Senior dogs [2]
  turning motion: eliminated at any dose
